Experimental data published in patent US7414131B2, “Bicycloheteroarylamine compounds as ion channel ligands and uses thereof” (Renovis, Inc., priority 2003, dated 2008).
Counter-ions that a name gives are not always drawn.

Experiments:
hVR1 = hVR1 (Homo sapiens, UniProt Q8NER1); assay: High throughput calcium imaging assay (Fura2, Flex Station) of VR1 antagonists; assay type: cell-based; conditions: HEK 293 cells expressing hVR1; for % Inhibition @ 1 μM: 1 μM compound, inhibition of calcium ion influx; for IC50: concentrations 10 nM to 3.3 μM
Chain of hVR1 (Q8NER1 whole entry): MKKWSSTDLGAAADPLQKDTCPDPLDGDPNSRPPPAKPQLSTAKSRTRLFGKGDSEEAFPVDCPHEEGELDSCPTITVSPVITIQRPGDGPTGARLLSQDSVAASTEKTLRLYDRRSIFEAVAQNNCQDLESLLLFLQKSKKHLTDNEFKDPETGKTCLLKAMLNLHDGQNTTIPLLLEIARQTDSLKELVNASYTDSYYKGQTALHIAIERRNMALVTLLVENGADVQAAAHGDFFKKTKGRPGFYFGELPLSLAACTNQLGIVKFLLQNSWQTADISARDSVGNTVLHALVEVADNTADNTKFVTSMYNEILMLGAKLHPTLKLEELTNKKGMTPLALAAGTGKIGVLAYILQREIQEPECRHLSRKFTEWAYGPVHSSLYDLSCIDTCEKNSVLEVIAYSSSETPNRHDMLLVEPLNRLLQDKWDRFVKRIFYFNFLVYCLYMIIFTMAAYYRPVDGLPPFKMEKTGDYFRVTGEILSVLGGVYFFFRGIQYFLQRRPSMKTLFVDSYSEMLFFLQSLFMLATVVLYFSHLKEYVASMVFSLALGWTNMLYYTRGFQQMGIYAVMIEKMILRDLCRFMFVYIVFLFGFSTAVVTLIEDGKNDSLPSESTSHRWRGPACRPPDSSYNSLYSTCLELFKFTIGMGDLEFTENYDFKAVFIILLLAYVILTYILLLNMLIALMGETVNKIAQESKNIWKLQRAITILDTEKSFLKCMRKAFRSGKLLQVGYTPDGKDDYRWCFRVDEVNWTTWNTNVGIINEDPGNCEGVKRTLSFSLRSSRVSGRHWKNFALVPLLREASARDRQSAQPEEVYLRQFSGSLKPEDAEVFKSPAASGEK
Text: VR1 protein is a heat-gated cation channel that exchanges about 10 calcium ions for every sodium ion resulting in neuronal membrane depolarization and elevated intracellular calcium ion levels. Therefore the functional activity of compounds at the VR1 receptor may be determined by measuring changes in intracellular calcium levels in 293 cells expressing capsaicin-insensitive VR1 receptor variants. A dual wavelength ratiometric dye, Fura2, was used as an indicator of relative levels of calcium ions in a 96 well format using a bench top scanning fluorometer with integrated fluidics and temperature control (Flex Station, Molecular Devices).
A dual wavelength ratiometric dye, Fura2, was used as an indicator of relative levels of [Ca2+] in a 96 well format using a bench top scanning fluorometer with integrated fluidics and temperature control (Flex Station, Molecular Devices).
HEK 293 cells expressing hVR1 were grown on PDL coated 96-well black-walled plates, in the presence of a DMEM medium containing 5% Penstrep, 5% Glutamax, 200 ug/mL Hygromycin, 5 μg/mL Blasticide and 10% heat inactivated FBS. Prior to assay, the cells were loaded with 5 μg/mL Fura2 in normal saline solution at 37° C. for 40 minutes. Cells were then washed with normal saline to remove the dye.
The assay consists of two stages; a pre-treatment phase followed by a treatment phase. In the pretreatment phase, 50 μl of a compound solution was added to the cells. Immediately following, 50 μl of the test compound in the presence of agonist (a saline solution plus 10 mM citric acid bufferd to pH 5.7 with HCl) was added. Fura2 was excited at […] to indicate relative calcium concentration. Changes in wavelength measurements were made throughout the course of the experiment in 4 second intervals over a period of 3 minutes. The fluorescence ratio from the excitations at […] was recorded for analysis. Responses were measured as peak fluorescence ratio after compound-agonist addition minus baseline fluorescence ratio prior to treatment and were calculated for each concentration tested using the SoftMaxPro software. Data was expressed as percentage inhibition calculated as follows: […]
A dose response curve was then determined, from which the IC50 of each compound was calculated.

[1] = Pharmacokinetic profile after intravenous and oral administration in rats; assay type: in vivo, rat; conditions: IV 1 mg/kg, oral 5 mg/kg; for bioavailability / Vd / Cmax / Tmax: male, Sprague-Dawley; for bioavailability / Vd: plasma; for bioavailability / Vd / Cls (L/hrKg) / T/2: rat; for Vd / Cmax / Tmax / Cls (L/hrKg) / T/2: route of this column not given; for Cmax / Tmax: rat plasma
Experimental: The pharmacokinetic profile of Compound 1 was evaluated following intravenous and oral administration in rats. Sprague-Dawley male rats obtained from Charles River, San Diego, Calif. were acclimated for 24 hours.
Compounds of this invention were formulated at a concentration of 0.5 mg/mL for IV administration at a 1 mg/kg dose and 1 mg/mL for oral administration at a 5 mg/kg dose. All animals were weighed before dosing. The body weight was used to calculate the actual dose for each animal. The intravenous dose was administered through the jugular vein catheter in less than 1 minute. The oral dose volume was 1.5 mL for all PO rats administered through oral lavage.
For IV dosing, blood samples were collected using a pre-heparinized syringe via the caproic artery catheter before dosing and at t=2, 5, 15, 30, 60, 120, 180, 360, and 480 minutes post dosing. For PO dosing, blood samples were collected using a pre-heparinized syringe via the caproic artery catheter before dosing and at t=5, 15, 30, 60, 120, 180, 360, and 480 minutes post dosing. 250 uL of blood was obtained at each time point from each animal. Equal volumes of 0.9% normal saline were replaced to prevent dehydration. The whole blood samples were maintained on ice until centrifugation. Blood samples were centrifuged at 14,000 rpm for 10 minutes at 4° C., and the upper plasma layer was transferred into a clean vial and store at −80° C.

Sprague-Dawley male rats = assay: Carrageenan-induced thermal hyperalgesia, latency of paw withdrawal; assay type: in vivo; conditions: rat, carrageenan hindpaw; 30 mg/kg dosed one hour after carrageenan; tested two hours later
Experimental: Sprague-Dawley male rats obtained from Charles River, San Diego, Calif. were purchased at 150-175 g, and held for at least one week before testing. Pain was induced by injecting 100 μl of 2% carrageenan in 0.9% saline sub-Q into the right ventral hindpaw while the animals were under isofluorane anesthesia. Animals were then dosed one hour after with a concentration of 30 mg/kg of Compound 1. Two hours later, after acclimatizing in testing chambers for 20-30 minutes, animals were tested on both hindpaws for latency of paw withdrawal using a thermal testing apparatus. 2-3 trials were conducted with 10 minutes between trials. […] The figure depicts the time in seconds until animals withdraw from thermal stimulation at baseline and two hours after administration of delivery vehicle, control compound, and the dose of 30 mg/kg of Compound 1.

SMILES	% Inhibition @ 1 μM (hVR1)	other results
CS(=O)(=O)c1nc2c(c(Nc3ccc(C(F)(F)F)cc3)n1)CCN(c1ncccc1Cl)C2 [Example 25, [7-(3-Chloro-pyridin-2-yl)-2-methanesulfonyl-5,6,7,8-tetrahydro-pyrido[3,4-d]pyrimidin-4-yl]-(4-trifluoromethyl-phenyl)-amine]	IA (IA inactive.)	–
Cc1cccc(N2CCc3c(ncnc3Nc3ccc4c(c3)OCCO4)C2)c1 [Example 36, 5,6,7,8-Tetrahydro-N-(2,3-dihydrobenzo[b][1,4]dioxin-6-yl)-7-m-tolylpyrido[3,4-d]pyrimidin-4-amine]	–	IC50 (hVR1): 501 to 1000 nM
c1ccc(CN2CCc3c(ncnc3Nc3cnc4ccccc4c3)C2)cc1 [Example 38, 7-Benzyl-5,6,7,8-tetrahydro-N-(quinolin-3-yl)pyrido[3,4-d]pyrimidin-4-amine]	IA (IA inactive.)	–
CS(=O)(=O)c1cccnc1N1CCc2c(ncnc2Nc2ccc(S(=O)(=O)C(F)(F)F)cc2)C1 [Example 23, 5,6,7,8-tetrahydro-7-(3-(methylsulfonyl)pyridin-2-yl)-N-(4-(trifluoromethylsulfonyl)phenyl)pyrido[3,4-d]pyrimidin-4-amine]	+ (“+” compound exhibited 0-25% inhibition of calcium ion influx induced by capsaicin stimulation.)	–
CN(C)CCNc1nc2c(c(Nc3ccc(C(F)(F)F)cc3)n1)CCN(c1ncccc1Cl)C2 [Example 32, 7-(3-Chloropyridin-2-yl)-N^2-(2-(dimethylamino)ethyl)-N^4-(4-(trifluoromethyl)phenyl)-5,6,7,8-tetrahydropyrido[3,4-d]pyrimidine-2,4-diamine]	IA (IA inactive.)	–
FC(F)Oc1ccc(Nc2ncnc3c2CCN(c2ncccc2Cl)C3)cc1 [Example 15, 7-(3-Chloropyridin-2-yl)-N-(4-(difluoromethoxy)phenyl)-5,6,7,8-tetrahydropyrido[3,4-d]pyrimidin-4-amine]	IA (IA inactive.)	IC50 (hVR1): > 1000 nM
Cc1ccc(N2CCc3c(ncnc3Nc3ccc(C(F)(F)F)cc3)C2)cc1 [Example 47, N-(4-(Trifluoromethyl)phenyl)-5,6,7,8-tetrahydro-7-p-tolylpyrido[3,4-d]pyrimidin-4-amine]	IA (IA inactive.)	–
Cc1ccccc1N1CCc2c(ncnc2Nc2ccc(C(F)(F)F)cc2)C1 [Example 45, N-(4-(Trifluoromethyl)phenyl)-5,6,7,8-tetrahydro-7-o-tolylpyrido[3,4-d]pyrimidin-4-amine]	IA (IA inactive.)	–
FC(F)(F)c1ccc(Nc2ncnc3c2CCN(c2ncccc2C(F)(F)F)C3)cc1 [Example 12, (4-Trifluoromethyl-phenyl)-[7-(3-trifluoromethyl-pyridin-2-yl)-5,6,7,8-tetrahydro-pyrido[3,4-d]pyrimidin-4-yl]-amine]	–	IC50 (hVR1): > 1000 nM
FC(F)(F)c1cccc(Nc2ncnc3c2CCN(c2ncccc2Cl)C3)c1 [Example 43, 7-(3-Chloropyridin-2-yl)-N-(3-(trifluoromethyl)phenyl)-5,6,7,8-tetrahydropyrido[3,4-d]pyrimidin-4-amine]	IA (IA inactive.)	–
c1ccc(CN2CCc3c(ncnc3Nc3ccc4c(c3)OCCO4)C2)cc1 [Example 30, (7-Benzyl-5,6,7,8-tetrahydro-pyrido[3,4-d]pyrimidin-4-yl)-(2,3-dihydro-benzo[1,4]dioxin-6-yl)-amine]	IA (IA inactive.)	–
FC(F)(F)CCN1CCc2c(ncnc2Nc2ccc3c(c2)OCCO3)C1 [Example 7, (2,3-Dihydro-benzo[1,4]dioxin-6-yl)-[7-(3,3,3-trifluoro-propyl)-5,6,7,8-tetrahydro-pyrido[3,4-d]pyrimidin-4-yl]-amine hydrochloride]	IA (IA inactive.)	–
O=S(=O)(c1ccc(Nc2ncnc3c2CCN(c2ncccc2Cl)C3)cc1)C(F)(F)F [Example 22, 7-(3-Chloropyridin-2-yl)-5,6,7,8-tetrahydro-N-(4-(trifluoromethylsulfonyl)phenyl)pyrido[3,4-d]pyrimidin-4-amine]	IA (IA inactive.)	–
CC(C)(C)c1ccc(Nc2ncnc3c2CCN(Cc2ccccc2)C3)cc1 [Example 2, N-(4-tert-Butylphenyl)-7-benzyl-5,6,7,8-tetrahydropyrido[3,4-d]pyrimidin-4-amine]	IA (IA inactive.)	–
Fc1ccc(Nc2ncnc3c2CCN(c2ncccc2Cl)C3)cc1 [Example 19, 7-(3-Chloropyridin-2-yl)-N-(4-fluorophenyl)-5,6,7,8-tetrahydropyrido[3,4-d]pyrimidin-4-amine]	+++ (“+++” compound exhibited 51-75% inhibition of calcium ion influx induced by capsaicin stimulation.)	bioavailability [1]: 5.66%; Vd [1]: 12.2 L/kg; Cmax [1]: 24.5 ng/mL; Tmax [1]: 40.8 min; Cls (L/hrKg) [1]: 4.47 L/hrKg; T/2 [1]: 1.9 h
Clc1cccnc1N1CCc2c(ncnc2Nc2ccccc2)C1 [Example 18, 7-(3-Chloropyridin-2-yl)-5,6,7,8-tetrahydro-N-phenylpyrido[3,4-d]pyrimidin-4-amine]	++ (“++” compound exhibited 26-50% inhibition of calcium ion influx induced by capsaicin stimulation.)	bioavailability [1]: 4.07%; Vd [1]: 18 L/kg; Cmax [1]: 44.6 ng/mL; Tmax [1]: 55.2 min; Cls (L/hrKg) [1]: 4.45 L/hrKg; T/2 [1]: 2.55 h
COCc1nc2c(c(Nc3ccc(C(F)(F)F)cc3)n1)CCN(Cc1ccccc1)C2 [Example 31, 7-Benzyl-N-(4-(trifluoromethyl)phenyl)-5,6,7,8-tetrahydro-2-(methoxymethyl)pyrido[3,4-d]pyrimidin-4-amine]	IA (IA inactive.)	–
FC(F)(F)c1ccc(Nc2ncnc3c2CCN(c2ccccc2)C3)cc1 [Example 44, N-(4-(Trifluoromethyl)phenyl)-5,6,7,8-tetrahydro-7-phenylpyrido[3,4-d]pyrimidin-4-amine]	IA (IA inactive.)	–
CC(C)S(=O)(=O)c1cccnc1N1CCc2c(ncnc2Nc2ccc(C(F)(F)F)cc2)C1 [Example 16, N-(4-(Trifluoromethyl)phenyl)-5,6,7,8-tetrahydro-7-(3-(isopropylsulfonyl)pyridin-2-yl)pyrido[3,4-d]pyrimidin-4-amine]	IA (IA inactive.)	–
FC(F)(F)c1ccc(Nc2ncnc3c2CCN(c2ncccc2Cl)C3)cc1 [Example 1, 7-(3-Chloropyridin-2-yl)-N-(4-(trifluoromethyl)phenyl)-5,6,7,8-tetrahydropyrido[3,4-d]pyrimidin-4-amine]	–	latency of paw withdrawal (reversal of thermal hyperalgesia) (Sprague-Dawley male rats): significantly increased latency of paw withdrawal
